Data published in patent publication US12291515B2, “Pyrrolidine derivative and use thereof” (Rushi Biotech (Hangzhou) Co., Ltd, priority 2021, dated 2025).

Experiments:
Format in all cases: cell-based
[1] = tested on: Human multiple myeloma cell RPMI 8226; experiment: CCK-8 cell proliferation assay, RPMI8226; settings: RPMI8226 cells, CCK-8, 24 hrs with drug, OD 450 nm
Procedure: (§1) The effect of samples on the proliferation of human tumor cells in vitro was determined by CCK-8 cell proliferation assay.
(§2) The cells were assayed through a method including the following steps:
(§3) 1) The cells were digested, counted, and prepared into a cell suspension in a corresponding culture medium (Table 1) (5×10^4 cells/ml for CFPAC-1 and RPMI 8226, and 3.5×10^4 cells/ml for rest cells). The cell suspension was added to each well of a 96-well plate in 100 μl well.
(§4) 2) Then the 96-well plate was incubated for 24 hrs in an incubator at 37° C. and 5% CO2.
(§5) 3) The drug was diluted with the culture medium to the required working concentration. 100 μl of the corresponding drug containing medium was added to each well. A negative control group (added with drug-free culture medium) was also set.
(§6) 4) Then the 96-well plate was incubated for 24 hrs in an incubator at 37° C. and 5% CO2.
(§7) 5) The 96-well plate was stained with CCK-8, and The OD value was determined at λ=450 nm.
(§8) a) 10 μl of CCK-8 was added to each well, and incubated in the incubator for another 2-3 hrs.
(§9) b) The content was mixed uniformly by shaking gently on a shaker for 10 min, and the bubbles in the 96-well plate were removed.
(§10) 6) The inhibition rate in each group was calculated.

[2] = tested on: Human pancreatic cancer cell CFPAC-1; experiment: CCK-8 cell proliferation assay, CFPAC-1; settings: CFPAC-1 cells, CCK-8, 24 hrs with drug, OD 450 nm
Procedure: as §1, §2, §3, §4, §5, §6, §7, §8, §9, §10

[3] = tested on: Human gastric cancer cell MKN45; experiment: CCK-8 cell proliferation assay, MKN-45; settings: MKN-45 cells, CCK-8, 24 hrs with drug, OD 450 nm
Procedure: as §1, §2, §3, §4, §5, §6, §7, §8, §9, §10

[4] = tested on: Human hepatoma cell HepG2; experiment: CCK-8 cell proliferation assay, HepG2; settings: HepG2 cells, CCK-8, 24 hrs with drug, OD 450 nm
Procedure: as §1, §2, §3, §4, §5, §6, §7, §8, §9, §10

[5] = tested on: Human colon cancer cell HCT-116; experiment: CCK-8 cell proliferation assay, HCT116; settings: HCT116 cells, CCK-8, 24 hrs with drug, OD 450 nm
Procedure: as §1, §2, §3, §4, §5, §6, §7, §8, §9, §10

[6] = tested on: Human esophageal cancer cell TE-1; experiment: CCK-8 cell proliferation assay, TE-1; settings: TE-1 cells, CCK-8, 24 hrs with drug, OD 450 nm
Procedure: as §1, §2, §3, §4, §5, §6, §7, §8, §9, §10

[7] = tested on: Human lung adenocarcinoma cell A549; experiment: CCK-8 cell proliferation assay, A549; settings: A549 cells, CCK-8, 24 hrs with drug, OD 450 nm
Procedure: as §1, §2, §3, §4, §5, §6, §7, §8, §9, §10

Compound	IC50 [1]	IC50 [2]	IC50 [3]	IC50 [4]	IC50 [5]	IC50 [6]	IC50 [7]
O=C(NCCCCCC1CCN(C(=O)c2ccccc2)C1)Nc1ccncc1 (stereo not drawn) [BSS-TP007, 1-(5-(1-(benzoyl)pyrrolidin-3-yl)pentyl)-2-(4-pyridinyl)urea]	17 nM	28 nM	57 nM	69 nM	33 nM	76 nM	31 nM
O=C(NCCCCCC1CCN(C(=O)c2cccs2)C1)Nc1ccncc1 (stereo not drawn) [BSS-TP008, 1-(5-(1-(2-thienylformyl)pyrrolidin-3-yl)pentyl)-2-(4-pyridinyl)urea]	33 nM	22 nM	43 nM	51 nM	77 nM	58 nM	55 nM
COc1cccc(OC)c1C(=O)N1CCC(CCCCCNC(=O)Nc2ccncc2)C1 (stereo not drawn) [BSS-TP009, 1-(5-(1-(2,6-dimethoxybenzoyl)pyrrolidin-3-yl)pentyl)-2-(4-pyridinyl) urea]	26 nM	39 nM	63 nM	46 nM	21 nM	49 nM	29 nM
O=C(NCCCCCC1CCN(C(=O)c2ccc[nH]2)C1)Nc1ccncc1 (stereo not drawn) [BSS-TP010, 1-(5-(1-(2-pyrrolylformyl)pyrrolidin-3-yl)pentyl)-2-(4-pyridinyl)urea]	20 nM	38 nM	34 nM	41 nM	25 nM	42 nM	36 nM
O=C(NCCCCCC1CCN(C(=O)c2ccco2)C1)Nc1ccncc1 (stereo not drawn) [BSS-TP011, 1-(5-(1-(furoyl)pyrrolidin-3-yl)pentyl)-2-(4-pyridinyl)urea]	32 nM	29 nM	36 nM	77 nM	71 nM	81 nM	33 nM
O=C(NCCCCCC1CCN(C(=O)C2CCCO2)C1)Nc1ccncc1 (stereo not drawn) [BSS-TP012, 1-(5-(1-(2-tetrahydrofurylformyl)pyrrolidin-3-yl)pentyl)-2-(4-pyridinyl)urea]	30 nM	38 nM	59 nM	124 nM	51 nM	137 nM	67 nM

More lines, now with the values ahead:

IC50 [1]	IC50 [2]	IC50 [3]	IC50 [4]	IC50 [5]	IC50 [6]	IC50 [7]	Compound
45 nM	41 nM	73 nM	133 nM	68 nM	98 nM	81 nM	O=C(NCCCCCC1CCN(C(=O)C2CCCS2)C1)Nc1ccncc1 (stereo not drawn) [BSS-TP013, 1-(5-(1-(2-tetrahydrothienylformyl)pyrrolidin-3-yl)pentyl)-2-(4-pyridinyl)urea]
50 nM	51 nM	91 nM	89 nM	62 nM	82 nM	117 nM	O=C(NCCCCCC1CCN(C(=O)C2CCCN2)C1)Nc1ccncc1 (stereo not drawn) [BSS-TP014, 1-(5-(1-(2-pyrrolidinylformyl)pyrrolidin-3-yl)pentyl)-2-(4-pyridinyl)urea]
22 nM	28 nM	33 nM	39 nM	43 nM	57 nM	31 nM	O=C(NCCCCCC1CCN(C(=O)c2ccccc2)C1)Nc1ccnc(F)c1 (stereo not drawn) [BSS-TP015]
30 nM	32 nM	46 nM	59 nM	41 nM	55 nM	30 nM	COc1cccc(OC)c1C(=O)N1CCC(CCCCCNC(=O)Nc2ccnc(F)c2)C1 (stereo not drawn) [BSS-TP016]
42 nM	41 nM	55 nM	77 nM	57 nM	69 nM	41 nM	O=C(NCCCCCC1CCN(C(=O)c2ccc[nH]2)C1)Nc1ccnc(F)c1 (stereo not drawn) [BSS-TP017]
38 nM	33 nM	39 nM	61 nM	51 nM	88 nM	38 nM	O=C(NCCCCCC1CCN(C(=O)c2ccco2)C1)Nc1ccnc(F)c1 (stereo not drawn) [BSS-TP018]
